Values of other authors in patent US7632826B2, “Use of agonists of the glucocorticosteroid and/or mineralo-corticosteroid receptors, in particular corticosteroids for the treatment of addiction” (Curamentis Ltd., priority 1998, dated 2009).

CC(=O)NCCCS(=O)(=O)O [acamprosate]
Patients still abstinent (Austria (Whitworth et al., 1996), placebo 21%): 30% | Patients of the verum group still abstinent at end of study (German part of the study (Sass et al., 1996), after 48 weeks of treatment, placebo 20%): 42% | Addicted patients who did not achieve permanent abstinence despite treatment (average in Europe, placebo 85%): approximately 70%
